Experimental data taken from DBAASP.
In brackets after ≈: the same amount, converted by molar mass.

How the values were obtained:
Assay in all cases: ≥ marks a high value that may be exact or a test limit, other limits are often not marked, values filed in µg/mL are converted to µM
[1] = tested on: Escherichia coli ATCC 8739
[2] = tested on: Streptococcus pyogenes ATCC 19615
[3] = tested on: Klebsiella pneumoniae ATCC 13885
[4] = tested on: Proteus mirabilis ATCC 25933
[5] = tested on: Enterococcus faecalis ATCC 12953
[6] = tested on: Bacillus subtilis ATCC 6633
[7] = tested on: Staphylococcus aureus ATCC 29213
[8] = tested on: Salmonella enterica subsp. enterica serovar Typhimurium ATCC 14028
[9] = tested on: Pseudomonas aeruginosa ATCC 15442
[10] = tested on: Staphylococcus epidermidis NBRC 12933
[11] = tested on: Staphylococcus aureus NBRC 12732
[12] = tested on: Bacillus megaterium ATCC 19213
[13] = tested on: Bacillus subtilis NBRC 3513
[14] = tested on: Enterococcus faecalis ATCC 29212
[15] = tested on: Neisseria gonorrhoeae FA-19
Escherichia coli UB1005 = tested on: Escherichia coli UB1005
[16] = tested on: Escherichia coli CMCC 44102
Escherichia coli ER2566 = tested on: Escherichia coli ER2566
[17] = tested on: Staphylococcus aureus ATCC 25923
Escherichia coli K88 = tested on: Escherichia coli K88
[18] = tested on: Escherichia coli CVCC 1515
[19] = tested on: Neisseria gonorrhoeae F-62
[20] = tested on: Staphylococcus epidermidis ATCC 12228
[21] = tested on: Pseudomonas aeruginosa ATCC 27853
Escherichia coli = tested on: Escherichia coli
[22] = tested on: Pseudomonas aeruginosa ATCC 21625
[23] = tested on: Salmonella enterica subsp. enterica serovar Pullorum C79-13
Candida albicans = tested on: Candida albicans
Escherichia coli 078 = tested on: Escherichia coli 078
[24] = tested on: Pseudomonas aeruginosa ATCC 21630
[25] = tested on: Bacillus subtilis ATCC 11060
[26] = tested on: Salmonella enterica subsp. enterica serovar Typhimurium C77-31
Listeria monocytogenes = tested on: Listeria monocytogenes
[27] = tested on: Pseudomonas aeruginosa ATCC 10419
[28] = tested on: Bacillus megaterium KCTC 1096
[29] = tested on: Bacillus subtilis KCTC 1918
[30] = tested on: Escherichia coli KCTC 1682
[31] = tested on: Pseudomonas aeruginosa KCTC 1637
Proteus vulgaris = tested on: Proteus vulgaris
[32] = tested on: Staphylococcus aureus KCTC 1621
[33] = tested on: Xanthomonas fragariae Xf349-9A
[34] = tested on: Xanthomonas campestris pv. Vesicatoria 2133-2
[35] = tested on: Pseudomonas syringae pv. syringae EPS 94
[36] = tested on: Erwinia amylovora PMV 6076
[37] = tested on: Pseudomonas syringae pv. actinidiae Psa3700.1.1
[38] = tested on: Xanthomonas arboricola pv. pruni CFBP 5563

Question: With `CC[C@H](C)[C@H](N)C(=O)N[C@@H](Cc1ccc(O)cc1)C(=O)N[C@@H](Cc1ccc(O)cc1)C(=O)N1CCC[C@H]1C(=O)N1CCC[C@H]1C(=O)N[C@@H](CC(N)=O)C(=O)N[C@@H](Cc1cnc[nH]1)C(=O)N[C@@H](CC(N)=O)C(=O)N[C@@H](Cc1ccccc1)C(=O)N1CCC[C@H]1C(N)=O` [IYYPPNHNFP] as the molecule, how does the MIC [1] read?
Answer: Its MIC is no less than 203 µM.

Question: What about the MIC [2] of the same molecule?
Answer: The MIC was no less than 101 µM.

Question: What about the MIC [3] of the same molecule?
Answer: The MIC was no less than 101 µM.

Question: And the MIC [4]?
Answer: The MIC was no less than 101 µM.

Question: And the MIC [5]?
Answer: Its MIC is no less than 101 µM.

Question: What about the MIC [6] of the same molecule?
Answer: Its MIC is no less than 203 µM.

Question: And the MIC [7]?
Answer: The MIC was 203 µM (≈ 256 µg/mL).

Question: And the MIC [8]?
Answer: Its MIC is 203 µM (≈ 256 µg/mL).

Question: And the MIC [9]?
Answer: The MIC was no less than 203 µM.

Question: `CC[C@H](C)[C@H](NC(=O)[C@H](C)N)C(=O)N[C@@H](Cc1ccccc1)C(=O)N[C@H](C(=O)N[C@@H](Cc1ccccc1)C(=O)N[C@H](C(=O)N[C@@H](CCCN=C(N)N)C(=O)N[C@@H](Cc1c[nH]c2ccccc12)C(=O)N[C@@H](CC(C)C)C(=O)N[C@@H](CC(C)C)C(=O)N[C@@H](CCCCN)C(=O)N[C@@H](CC(C)C)C(=O)NCC(=O)N[C@@H](Cc1cnc[nH]1)C(=O)N[C@@H](Cc1cnc[nH]1)C(=O)NCC(=O)N[C@@H](CCCN=C(N)N)C(=O)O)[C@@H](C)CC)[C@@H](C)CC` [AIFIFIRWLLKLGHHGR] was tested. Which MIC [10] did it give?
Answer: Its MIC is 8 µM (≈ 16.6 µg/mL).

Question: And the MIC [11]?
Answer: The MIC was 4 µM (≈ 8.31 µg/mL).

Question: And the MIC [12]?
Answer: The MIC was 4 µM (≈ 8.31 µg/mL).

Question: And the MIC [13]?
Answer: The MIC was 16 µM (≈ 33.2 µg/mL).

Question: Which MIC [14] does the source give for `CC(C)C[C@H](NC(=O)CNC(=O)CNC(=O)CNC(=O)[C@@H](N)CCCNC(=N)N)C(=O)N[C@H]1CSSC[C@@H](C(=O)N[C@H](C(=O)NCC(=O)N[C@@H](CCCNC(=N)N)C(N)=O)C(C)C)NC(=O)[C@H](C(C)C)NC(=O)[C@@H]2CSSC[C@H](NC(=O)[C@H](Cc3ccc(O)cc3)NC1=O)C(=O)N[C@@H](CCCNC(=N)N)C(=O)N[C@@H](CCCNC(=N)N)C(=O)N[C@@H](CCCNC(=N)N)C(=O)N[C@@H](Cc1ccccc1)C(=O)N2` [RGGGLCYCRRRFCVCVGR] here?
Answer: Its MIC is 32.2 µM (≈ 66.2 µg/mL).

Question: What about the MIC [15] of the same molecule?
Answer: Its MIC is 0.873 µM (≈ 1.8 µg/mL).

Question: And the MIC (Escherichia coli UB1005)?
Answer: Its MIC is 1.99 µM (≈ 4.09 µg/mL).

Question: What about the MIC [16] of the same molecule?
Answer: Its MIC is 1.02 µM (≈ 2.09 µg/mL).

Question: What about the MIC (Escherichia coli ER2566) of the same molecule?
Answer: The MIC was 0.485 µM (≈ 0.998 µg/mL).

Question: What about the MIC [17] of the same molecule?
Answer: The MIC was 8.05 µM (≈ 16.6 µg/mL).

Question: And the MIC (Escherichia coli K88)?
Answer: The MIC was 4.03 µM (≈ 8.28 µg/mL).

Question: What about the MIC [18] of the same molecule?
Answer: The MIC was 1.99 µM (≈ 4.09 µg/mL).

Question: What about the MIC [19] of the same molecule?
Answer: Its MIC is 0.679 µM (≈ 1.4 µg/mL).

Question: What about the MIC [20] of the same molecule?
Answer: The MIC was 32.2 µM (≈ 66.2 µg/mL).

Question: And the MIC [21]?
Answer: Its MIC is 4.03 µM (≈ 8.28 µg/mL).

Question: What about the MIC (Escherichia coli) of the same molecule?
Answer: Its MIC is 1.12 µM (≈ 2.29 µg/mL).

Question: And the MIC [22]?
Answer: The MIC was 8.05 µM (≈ 16.6 µg/mL).

Question: And the MIC [23]?
Answer: The MIC was 1.99 µM (≈ 4.09 µg/mL).

Question: And the MIC (Candida albicans)?
Answer: Its MIC is 4.66 µM (≈ 9.58 µg/mL).

Question: What about the MIC [7] of the same molecule?
Answer: The MIC was 4.03 µM (≈ 8.28 µg/mL).

Question: And the MIC (Escherichia coli 078)?
Answer: Its MIC is 16.1 µM (≈ 33.1 µg/mL).

Question: And the MIC [24]?
Answer: Its MIC is 8.05 µM (≈ 16.6 µg/mL).

Question: And the MIC [25]?
Answer: The MIC was 16.1 µM (≈ 33.1 µg/mL).

Question: What about the MIC [8] of the same molecule?
Answer: Its MIC is 1.99 µM (≈ 4.09 µg/mL).

Question: What about the MIC [26] of the same molecule?
Answer: The MIC was 4.03 µM (≈ 8.28 µg/mL).

Question: And the MIC (Listeria monocytogenes)?
Answer: The MIC was 1.36 µM (≈ 2.79 µg/mL).

Question: And the MIC [27]?
Answer: Its MIC is 4.03 µM (≈ 8.28 µg/mL).

Question: How did the MIC [28] turn out when `CC[C@H](C)[C@H](NC(=O)[C@H](CCCCN)NC(=O)[C@H](CCCCN)NC(=O)[C@H](Cc1ccccc1)NC(=O)[C@H](CC(C)C)NC(=O)[C@H](CCCCN)NC(=O)[C@H](Cc1c[nH]c2ccccc12)NC(=O)[C@@H](N)CCCCN)C(=O)N1CCC[C@H]1C(=O)N[C@@H](CC(C)C)C(=O)N[C@@H](Cc1cnc[nH]1)C(=O)N[C@@H](CC(C)C)C(=O)N[C@@H](C)C(=O)N[C@@H](CCCCN)C(=O)N[C@@H](CCCCN)C(=O)N[C@@H](Cc1ccccc1)C(N)=O` [KWKLFKKIPLHLAKKF] was run?
Answer: The MIC was 3.12 µM (≈ 6.33 µg/mL).

Question: And the MIC [29]?
Answer: The MIC was 1.1 µM (≈ 2.23 µg/mL).

Question: And the MIC [30]?
Answer: Its MIC is 8.84 µM (≈ 17.9 µg/mL).

Question: What about the MIC [31] of the same molecule?
Answer: The MIC was 6.25 µM (≈ 12.7 µg/mL).

Question: What about the MIC (Proteus vulgaris) of the same molecule?
Answer: Its MIC is 1.56 µM (≈ 3.16 µg/mL).

Question: And the MIC [32]?
Answer: The MIC was 3.12 µM (≈ 6.33 µg/mL).

Question: What does the source list for `CC[C@H](C)[C@H](NC(=O)[C@H](CCCCN)NC(=O)[C@H](CCCCN)NC(=O)[C@H](CC(C)C)NC(=O)[C@H](CC(=O)O)NC(=O)[C@@H](NC(=O)[C@@H](N)Cc1ccccc1)C(C)C)C(=O)N[C@@H](C)C(=O)N[C@@H](CC(N)=O)C(=O)N[C@H](C(=O)N[C@H](C(=O)N[C@@H](CC(N)=O)C(=O)N[C@@H](CO)C(=O)N[C@H](C(=O)N[C@@H](Cc1ccccc1)C(=O)NCC(=O)N[C@@H](CCCCN)C(N)=O)[C@@H](C)CC)[C@@H](C)CC)[C@@H](C)CC` [FVDLKKIANIINSIFGK]?
Answer: MIC [33]: ≥ 50 µM; MIC [34]: 4.38 µM (≈ 8.41 µg/mL); MIC [35]: ≥ 50 µM; MIC [36]: ≥ 35.4 µM; MIC [37]: ≥ 50 µM; MIC [38]: 2.84 µM (≈ 5.45 µg/mL)
